Measurements as given in ChEMBL document CHEMBL3507680, “University of Dundee, Gates Library screen for HepG2 cell viability”.

Assay: Human HepG2 cell viability assay in 384 well format
Assay type: toxicity, cell-based
Design: dose 125 nL, time 70.5 hour; concentration not given beside the values
Conditions: HepG2 cells, read-out: Inhibition

Structure (SMILES)	cytotoxicity at 70.5 h [%]
O=c1c(-c2ccnc(N3CCC[C@H]3CO)n2)cnc2sccn12	-1.75
COc1cc(/C=C/c2ncc(C(=O)O)s2)cc(Cl)c1O	7.03
Cc1cc(NC(=O)CN2CCC(N3CCNC3=O)CC2)on1	-5.65
O=C(NCCC1CCCCO1)c1cc(COc2cncc(Cl)c2)on1 (stereo not drawn)	14.4
O=C(Cc1cn2ccsc2n1)N(Cc1ccco1)CC1CCCO1 (stereo not drawn)	7.91
O=C([C@H]1C[C@H]2OCC[C@H]2N(Cc2ccco2)C1)N1CCCO1	-14.8
O=C(c1cccnc1)N1CCCC(c2ccnc3nccn23)C1 (stereo not drawn)	7.06
COc1ccc(CN2Cc3nnn(C)c3C(COCCN(C)C)C2)cc1 (stereo not drawn)	4.07
COCCN1C(=O)CC[C@]12CC[C@@H](NC(=O)c1cc(C)on1)CC2	-5.63
O=C(c1ccncc1)N1CCN2C[C@H](Oc3cccnc3)C[C@H]2C1	2.63
CCOc1ccc(CN2CCNC(C(=O)NC3CC3)C2)cc1CO (stereo not drawn)	-10.9
Cc1scc(C(=O)N2CCC3(CC(=O)NC3=O)C2)c1-c1ccccc1 (stereo not drawn)	-11
Cc1ccc(CN2CC[C@H](c3nnc(COc4ccc(F)cc4)o3)C2)o1	-6.96
O=C1[C@H]2CN(Cc3ccoc3)C[C@H]2CN1Cc1ccncc1	-1.61
Cc1cnn(CC2CN(Cc3nc(-c4ccco4)no3)CCO2)c1 (stereo not drawn)	-0.209
CSc1ccc(CN(CCO)C(=O)CCc2ccc(O)cc2)cc1	-16.6
CCCOc1ccc(OCCN2CCOCS2(=O)=O)cc1	-10.3
CCNC(=O)CCC(=O)NC1(c2cccc(Br)c2)CC1	-2.97
O=C(c1cc[nH]n1)N1CCC2(CC1)CC(Oc1cccnc1)CO2 (stereo not drawn)	8.68
Cc1ccc(C(C)(O)CNC(=O)c2scnc2C)o1 (stereo not drawn)	-3.68
COc1cccc(CN(C)C(=O)c2csc(-c3nnc[nH]3)n2)c1	-1.87
CCS(=O)(=O)N1CCOC2(COCCN(C(C)=O)C2)C1 (stereo not drawn)	28.6
Cn1nc(COc2cccnc2)c2c1CCN(Cc1ccco1)C2	4.18

Structure (SMILES)	cytotoxicity at 70.5 h [%]
COc1ccc2nnc(CCC(=O)Nc3nc4c(s3)CCCCC4)n2n1	-17.3
CCOc1ccc(C(=O)N2Cc3cnc(CC)nc3C2)o1	-3.48
CC(C)(C)C(NCC(=O)N1CCNC(=O)C1)c1ccccc1 (stereo not drawn)	-107
O=C1CC2(CCCCN2C(=O)c2cccs2)CN1CC1CC1 (stereo not drawn)	3.54
CC(C)=CCN1CC2(CCN(Cc3ncc[nH]3)CC2)CC1=O	11.6
Cc1cc(C[C@@H]2COC[C@@H]2NC(=O)CNC(=O)N(C)C)on1	9.05
Cc1c(CN2CCOCC2)c(O)n(CCO)c(=O)c1C#N	41
O=C(CCc1cc2n(n1)CCNC2)NCCS(=O)(=O)N1CCCC1	-11.2
COc1ccc(C(=O)N2C[C@H]3CC[C@@H]2CN(C)C3)cc1Cl	47.4
Cc1nn(-c2ccc(C(=O)O)cc2)c2c1C(c1cccs1)SCC(=O)N2 (stereo not drawn)	0.275
CN1CCN(Cc2cccnc2)C(=O)C12CCN(S(C)(=O)=O)CC2	-5.92
CC(C)CC(O)C1CCN(Cc2cnc(-c3cccs3)nc2)CC1 (stereo not drawn)	37.1
COCCn1ccc(NC(=O)Nc2cccnc2)n1	-2.62
CNC(=O)Nc1cc(-c2ccc(Br)cc2)nn1CCO	-0.486
Nc1nnnn1NCc1cccc2ccccc12	-11.8
CC(=O)N(Cc1noc(C2CC2)n1)C1CCN(Cc2ccccn2)C1 (stereo not drawn)	-9.44
COC[C@H]1CCC[C@H]1Nc1ncnc2c1CCNCC2	-3.38
Cc1cc(C(=O)N2CCCC(Cn3cc(C4CC4)nn3)C2)nc(C)n1 (stereo not drawn)	-13.2
O=C(NCc1nccs1)N1CCOC(c2ccccc2Cl)C1 (stereo not drawn)	10.9
CN(C)C(C(=O)N1CCN(S(N)(=O)=O)CC1)c1ccccc1F (stereo not drawn)	-3.36
CCCn1ncc(-c2ccnc(NC3CCCc4ccccc43)n2)c1C (stereo not drawn)	55.9
O=S(=O)(c1ccc(F)c(F)c1)n1cc(Cl)cn1	-6.91
O=C(c1cnc(-c2cccs2)s1)N1CCCN2CCCC2C1 (stereo not drawn)	-5.78

Structure (SMILES)	cytotoxicity at 70.5 h [%]
Cc1ccccc1CN(Cc1ccc(S(C)(=O)=O)cc1)CC(C)C	6.09
CC1CCCN(C(=O)c2ccc(-c3ccco3)o2)C1 (stereo not drawn)	-22.7
O=C(NCC1CC1)C1CN(C(=O)c2ccco2)CC12CCOCC2 (stereo not drawn)	-1.19
CC(C)c1nn(C)c(N(C)C)c1CNCCC(=O)N(C)C	-2.45
COc1ccnc(N2CCCN(C(=O)Cc3ccc(C)s3)CC2)n1	22.9
CC(C)(CN1CCC2(CCOCC2)CC1)N1CCOCC1	9.42
Cc1cn2c(n1)CCC(NS(=O)(=O)c1sc(C)nc1C)C2 (stereo not drawn)	3.5
Cc1ccccc1N1CCN(C(=O)c2ccc[nH]2)C(C)C1 (stereo not drawn)	-2.71
COc1ccccc1C1(CNc2ccnc(C(=O)N(C)C)c2)CC1	33.4
CC(C)NC(=O)Nc1ccc(-c2nc(C(C)C)no2)cc1	-8.44
CNC(=O)Cc1ccccc1NC(=O)C1CCCC1	29.2
NC1CCN(c2nccn3c(=O)[nH]nc23)CC1	22.8
COCCNC(=O)[C@H]1CO[C@H]2CCN(Cc3cccs3)C[C@H]2C1	-1.82
CCOC[C@@H]1CC[C@H]2[C@H](CCN2C(=O)c2ccncc2F)O1	-1.37
c1cnn(Cc2nnc3n2CCCN(Cc2ccsc2)C3)c1	4.58
O=C(NCCSC1CCCC1)c1ccc(F)cc1F	-5.35
Cc1ccc(-c2cc(N)c(=O)n(CC(=O)NC3CCCC3)n2)s1	13
CC(=O)CN1CC2(CCNCC2)COc2ccccc2S1(=O)=O	-12.2
CC(=O)OC1CN(c2nc3c(C(F)(F)F)cccc3s2)C1	-11.8
CC(=O)c1cccc(NCC(=O)NC(N)=O)c1	27.4
CCCN(Cc1nccn1C)C(=O)c1cc(C)nc(C)n1	-9.67
Cc1nn(-c2ccccc2)c(C)c1CNC(=O)NC1CC1	-3.17
CC(C)N1CCCCC1CCn1cnc2cc(C(F)(F)F)ccc2c1=O (stereo not drawn)	-12.9

Structure (SMILES)	cytotoxicity at 70.5 h [%]
Cc1ccc(N2CCCC(NCc3cscn3)C2)nn1 (stereo not drawn)	-11.8
CC(C)=CCN1CCN(C(=O)c2snnc2C)[C@H]2CS(=O)(=O)C[C@H]21	-9.09
O=C(NCCSc1ccccc1)[C@H]1CNC[C@@H](C(=O)N2CCOCC2)C1	-7.93
CNS(=O)(=O)c1ccc(CNC(=O)c2cc(-c3ccccn3)no2)cc1	-8.91
O=C(NCCc1cccc(F)c1)c1nc2c(s1)CCCN2C(=O)C1CC1	-5.89
O=C(C1CN(c2ncc(F)cn2)CC12CCOCC2)N1CC=CC1 (stereo not drawn)	-5.64
CC1CN(Cc2ccc(C#N)cc2F)CCN1Cc1nccn1C (stereo not drawn)	-5.45
CCOC(=O)CC(NC(=O)c1cn(Cc2ccccc2F)nn1)C(C)C (stereo not drawn)	-9.35
CC(=O)c1cc(CC(=O)NCc2ccc(CN(C)C)cc2)cs1	-7.31
C[C@@H]1CN(C2CCN(c3ccccc3)CC2)CC[C@@]1(O)C1CCOCC1	-3.71
CCCS(=O)(=O)N1CCN(c2cc(-n3cnc(C)c3C)ncn2)CC1	2.79
c1c(CN2CCCCC2)nc2n1CCNC2	8.55
COc1ccc(NC(=O)Nc2c(O)c3ccccc3oc2=O)cc1	-1.02
CC(C)N1CC2(CCCN(c3ncc(Cl)cc3F)C2)CCC1=O (stereo not drawn)	-4.82
COC1CCN(S(=O)(=O)NCC2COc3ccccc3C2)CC1 (stereo not drawn)	-4.76
COc1ccc(-c2ccccc2CCN)c(OC)c1OC	6.2
CN(C)C1CCCN(C(=O)NCc2ccccc2-n2cccn2)C1 (stereo not drawn)	10.5
c1ncn(CC2CCCN2Cc2cn3ccsc3n2)n1 (stereo not drawn)	-16.9
CCCc1nnc(NC(=O)Cc2c(C)nc(C)[nH]c2=O)s1	-6.43
Cc1cccc(CN2CC[C@H]3O[C@H](C(=O)Nc4cnccn4)CC[C@H]32)n1	1.13
Cc1nc[nH]c1-c1nccn1CCN(C)S(C)(=O)=O	3.1
CC(C)NC(=O)Nc1ccc(-c2nc3c([nH]2)CCNC3)cc1	-15.8
CCc1nnc2n1CCN(C(=O)C1CCC(n3cccc3)CC1)C2 (stereo not drawn)	-6.9

Structure (SMILES)	cytotoxicity at 70.5 h [%]
CN1CCCN(C[C@@H]2CN(C(=O)CC3CCC3)C[C@@H]2CO)CC1	-2.25
N#Cc1ccccc1CN1CCCC(c2nccn2CC2CC2)C1 (stereo not drawn)	12.6
CNC(=O)CN1CCC(c2cc(OC)cc(OC)c2)C1 (stereo not drawn)	-7.18
c1cc(CN2CCc3c(CN4CCCC4)n[nH]c3C2)ccn1	23.4
O=C(Nc1ccc(Cl)cn1)C1CCCN(Cc2ccccn2)C1 (stereo not drawn)	-1.12
COc1cc(NC2CCCN(c3ncccc3C#N)C2)cc(OC)c1 (stereo not drawn)	23
CC(CCNC(=O)NCCc1ccncc1)c1ccccc1 (stereo not drawn)	-0.345
Cc1nnc(N2CCCC3(CN(Cc4nccs4)CCO3)C2)o1 (stereo not drawn)	34.9
Cc1noc2ncnc(N3CCC(O)(Cn4ccnc4)CC3)c12	4.45
NC(=O)C1CCN(C(=O)CCn2ccc3ccc(Br)cc32)CC1	-33.3
c1ccc(-c2nc(CN3CCn4c(nnc4C4CC4)C3)co2)cc1	-9.3
CC(C)c1noc(CCCC(=O)NCC2CCS(=O)(=O)C2)n1 (stereo not drawn)	22.3
Cc1cccc(CN(Cc2cccnc2)C2CC(C)(C)NC(C)(C)C2)n1	-1.41
CCc1nsc(N2CCCN(C(=O)COc3ccccc3)CC2)n1	-3.48
Cc1ncsc1C(=O)N1CCN(Cc2ccccc2)CC1C (stereo not drawn)	2.52
CN1CCC2(CC1)CCN(C(=O)c1onc3ccccc13)C2	-6.04
CCCC1(CO)CCCN(C(=O)CCCn2nc(C)cc2C)C1 (stereo not drawn)	-0.556
N[C@H]1CN(C(=O)c2ccc3[nH]c(CO)nc3c2)C[C@@H]1c1ccccc1	-19.4
CS(=O)(=O)N1C[C@@H]2CC[C@H](C1)N(CCC(=O)NCc1ccco1)C2	4.49
Cc1cn2c(=O)c(-c3ccnc(N[C@@H](C)CO)n3)cnc2s1	-5.83
Cc1noc(C)c1CN1C[C@@H]2CN(C(=O)c3cscn3)C[C@@H]2C1	-2.29
